Assay results taken from patent US8268848B2, “Cyclopropane compound” (Eisai R&D Management Co., Ltd., priority 2010, dated 2012).
Read-outs that look alike come from different tables or passages of the source.

Experiments:
OX1 = target: T1, OX1 (Homo sapiens, UniProt O43613); assay: Measurement of orexin receptor-binding ability ([125I]-OX-A, cell membranes, OX1); set-up: expressed in transfected cells; host or cells: CHO cells (membrane preparation)
T1 sequence (O43613 1-425): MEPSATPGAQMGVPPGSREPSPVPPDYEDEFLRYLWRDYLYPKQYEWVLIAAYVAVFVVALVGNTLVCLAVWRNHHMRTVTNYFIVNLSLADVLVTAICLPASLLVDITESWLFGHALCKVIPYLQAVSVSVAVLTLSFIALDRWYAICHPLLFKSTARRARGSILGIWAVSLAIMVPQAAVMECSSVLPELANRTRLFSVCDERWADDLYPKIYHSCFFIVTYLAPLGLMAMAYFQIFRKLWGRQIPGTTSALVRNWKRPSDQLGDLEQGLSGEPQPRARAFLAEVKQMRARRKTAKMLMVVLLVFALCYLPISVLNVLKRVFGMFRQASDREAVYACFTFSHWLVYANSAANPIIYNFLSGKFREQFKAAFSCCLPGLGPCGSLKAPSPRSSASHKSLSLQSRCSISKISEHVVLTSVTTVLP
Protocol: (§1) 1. Measurement of Orexin Receptor-Binding Ability
(§2) The assay was carried out using a 96-well Wheat Germ Agglutinin Flash Plate (PerkinElmer). The volume in a single assay well was 100 ul, and the composition of the reaction solution was as follows:
(§3) 25 mM HEPES (pH 7.5), 1 mM CaCl2, 4.5 mM MgCl2, 0.5% BSA (bovine serum albumin), 0.1% sodium azide, 0.05% Tween-20, and 0.2% DMSO.
(§4) Cell membranes were prepared from recombinant CHO cells that expressed OX2 or OX1. The cell membranes were used in an amount of 5 μg protein/assay. […] Finally, the radioactivity of each well was measured using a scintillation counter (TopCount, PerkinElmer).

OX2 = target: T2, OX2 (Homo sapiens, UniProt O43614); assay: Measurement of orexin receptor-binding ability ([125I]-OX-A, cell membranes, OX2); set-up: expressed in transfected cells; host or cells: CHO cells (membrane preparation); details: membranes of recombinant CHO cells expressing OX2, 0.2 nM [125I]-OX-A
T2 sequence (O43614 1-444): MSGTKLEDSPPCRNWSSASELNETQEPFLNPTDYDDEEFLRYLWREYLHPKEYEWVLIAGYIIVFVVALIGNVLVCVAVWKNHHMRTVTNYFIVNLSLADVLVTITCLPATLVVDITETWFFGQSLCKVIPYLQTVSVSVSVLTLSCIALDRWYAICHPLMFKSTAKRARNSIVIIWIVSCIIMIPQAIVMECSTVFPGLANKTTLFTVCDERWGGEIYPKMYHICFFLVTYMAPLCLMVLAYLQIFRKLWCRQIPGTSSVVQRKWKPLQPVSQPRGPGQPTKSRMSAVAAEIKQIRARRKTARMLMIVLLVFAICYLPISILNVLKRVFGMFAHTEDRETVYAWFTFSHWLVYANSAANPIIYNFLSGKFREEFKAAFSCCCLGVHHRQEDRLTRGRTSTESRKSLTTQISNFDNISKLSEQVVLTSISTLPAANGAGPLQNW
Protocol: as §1, §2, §3, §4

[1] = membranes of recombinant CHO cells expressing OX1, 0.2 nM [125I]-OX-A, read-out: OX1 (IC50)

COc1ccc([C@]2(COc3cnc(C)nc3C)C[C@H]2C(=O)Nc2ccc(F)cn2)cc1F [Example 322, (1R,2S)-2-{[(2,4-dimethylpyrimidin-5-yl)oxy]methyl}-2-(3-fluoro-4-methoxyphenyl)-N-(5-fluoropyridin-2-yl)cyclopropanecarboxamide]
IC50 (OX1): 30 nM
IC50 (OX2; OX2 (IC50) nM): 7 nM

Cc1ncc(OCC2(c3ccccc3Cl)CC2C(=O)Nc2ccc(C#N)cn2)c(C)n1 (centres unmarked) [Example 153]
IC50 (OX1): 447 nM
IC50 (OX2; OX2 (IC50) nM): 32 nM

Cc1ncc(OC[C@@]2(c3ccccc3)C[C@H]2C(=O)Nc2cccc(N(C)C)c2)c(C)n1 [Example 19, (1R,2S)-N-[3-(dimethylamino)phenyl]-2-{[(2,4-dimethylpyrimidin-5-yl)oxy]methyl}-2-phenylcyclopropanecarboxamide]
IC50 (OX1; [1]): 93 nM
IC50 (OX2; read-out: OX2 (IC50)): 10 nM

Cc1ncc(OC[C@@]2(c3cc(F)cc(F)c3)C[C@H]2C(=O)Nc2ccc(F)cn2)c(C)n1 [Example 133, (1R,2S)-2-(3,5-difluorophenyl)-2-{[(2,4-dimethylpyrimidin-5-yl)oxy]methyl}-N-(5-fluoropyridin-2-yl)cyclopropanecarboxamide]
IC50 (OX1): 7 nM
IC50 (OX2; OX2 (IC50) nM): 3 nM

Cc1ncc(OC[C@@]2(c3ccc(F)cc3)C[C@H]2C(=O)Nc2ccccn2)c(C)n1 [Example 110]
IC50 (OX1): 340 nM
IC50 (OX2; OX2 (IC50) nM): 110 nM

COCc1nc(C)ncc1OC[C@@]1(c2ccccc2)C[C@H]1C(=O)Nc1nc(C)cs1 [Example 142]
IC50 (OX1; [1]): 331 nM
IC50 (OX2; read-out: OX2 (IC50)): 36 nM

COc1cccc(C2(COc3cnc(C)nc3C)CC2C(=O)Nc2ccc(C#N)cn2)c1 (centres unmarked) [Example 183]
IC50 (OX1): 337 nM
IC50 (OX2; OX2 (IC50) nM): 42 nM

COCc1nc(C)ncc1OC[C@@]1(c2ccc(F)cc2)C[C@H]1C(=O)Nc1ccc(F)c(F)c1 [Example 207, (1R,2S)-N-(3,4-difluorophenyl)-2-(4-fluorophenyl)-2-{[(4-methoxymethyl-2-methylpyrimidin-5-yl)oxy]methyl}cyclopropanecarboxamide]
IC50 (OX1; [1]): 110 nM
IC50 (OX2; read-out: OX2 (IC50)): 9 nM

COCc1nc(C)ncc1OC[C@@]1(c2cc(F)cc(F)c2)C[C@H]1C(=O)Nc1ccc(F)cc1 [Example 219, (1R,2S)-2-(3,5-difluorophenyl)-N-(4-fluorophenyl)-2-{[(4-methoxymethyl-2-methylpyrimidin-5-yl)oxy]methyl}cyclopropanecarboxamide]
IC50 (OX1; [1]): 10 nM
IC50 (OX2; read-out: OX2 (IC50)): 3 nM

Cc1ccnc(NC(=O)[C@@H]2C[C@@]2(COc2cnc(C)nc2C)c2ccccc2)c1 [Example 47]
IC50 (OX1; [1]): 228 nM
IC50 (OX2; read-out: OX2 (IC50)): 29 nM

Cc1ncc(OC[C@@]2(c3cccc(C(F)(F)F)c3)C[C@H]2C(=O)Nc2ccc(F)cn2)c(C)n1 [Example 266, (1R,2S)-2-{[(2,4-dimethylpyrimidin-5-yl)oxy]methyl}-N-(5-fluoropyridin-2-yl)-2-(3-trifluoromethylphenyl)cyclopropanecarboxamide]
IC50 (OX1): 30 nM
IC50 (OX2; OX2 (IC50) nM): 2.7 nM

CCc1nc(C)ncc1OC[C@@]1(c2cccc(F)c2)C[C@H]1C(=O)Nc1ccc(F)cn1 [Example 241, (1R,2S)-2-{[(4-ethyl-2-methylpyrimidin-5-yl)oxy]methyl}-2-(3-fluorophenyl)-N-(5-fluoropyridin-2-yl)cyclopropanecarboxamide]
IC50 (OX1): 2 nM
IC50 (OX2; OX2 (IC50) nM): 2.2 nM

Cc1ncc(OCC2(c3cccc(C(F)(F)F)c3)CC2C(=O)Nc2ccc(Cl)cn2)c(C)n1 (centres unmarked) [Example 265]
IC50 (OX1): 43 nM
IC50 (OX2; OX2 (IC50) nM): 10 nM

Cc1ncc(OC[C@@]2(c3cccc(F)c3)C[C@H]2C(=O)Nc2ccccn2)c(C)n1 [Example 87]
IC50 (OX1): 43 nM
IC50 (OX2; OX2 (IC50) nM): 10 nM

COCCc1nc(C)ncc1OC[C@@]1(c2cccc(F)c2)C[C@H]1C(=O)Nc1cc(C)c(F)cn1 [Example 229, (1R,2S)-N-(5-fluoro-4-methylpyridin-2-yl)-2-(3-fluorophenyl)-2-{[(4-methoxyethyl-2-methylpyrimidin-5-yl)oxy]methyl}cyclopropanecarboxamide]
IC50 (OX1): 19 nM
IC50 (OX2; OX2 (IC50) nM): 4 nM

Cc1ncc(OC[C@@]2(c3ccc(F)c(F)c3)C[C@H]2C(=O)Nc2ccccn2)c(C)n1 [Example 166, (1R,2S)-2-(3,4-difluorophenyl)-2-{[(2,4-dimethylpyrimidin-5-yl)oxy]methyl}-N-(pyridin-2-yl)cyclopropanecarboxamide]
IC50 (OX1): 50 nM
IC50 (OX2; OX2 (IC50) nM): 7 nM

Cc1ccc(C2(COc3cnc(C)nc3C)CC2C(=O)Nc2ccc(F)cn2)cc1 (centres unmarked) [Example 174]
IC50 (OX1): 33 nM
IC50 (OX2; OX2 (IC50) nM): 55 nM

Cc1ncc(OC[C@@]2(c3cccc(F)c3)C[C@H]2C(=O)Nc2ccc(F)cn2)c(C)[n+]1[O-] [Example 285]
IC50 (OX1): 77 nM
IC50 (OX2; OX2 (IC50) nM): 16 nM

Cc1ncc(OC[C@@]2(c3cccc(F)c3)C[C@H]2C(=O)Nc2ccc(I)cn2)c(C)n1 [Example 280]
IC50 (OX1): 24 nM
IC50 (OX2; OX2 (IC50) nM): 21 nM

Cc1cccc(C2(COc3cnc(C)nc3C)CC2C(=O)Nc2cccnc2)c1 (centres unmarked) [Example 177]
IC50 (OX1; [1]): 334 nM
IC50 (OX2; read-out: OX2 (IC50)): 84 nM

Cc1ncc(OCC2(c3cccnc3)CC2C(=O)Nc2ccc(Cl)cn2)c(C)n1 (centres unmarked) [Example 260, N-(5-chloropyridin-2-yl)-2-{[(2,4-dimethylpyrimidin-5-yl)oxy]methyl}-2-pyridin-3-ylcyclopropanecarboxamide]
IC50 (OX1; [1]): > 2000 nM
IC50 (OX2; read-out: OX2 (IC50)): 70 nM

Cc1ncc(OC[C@@]2(c3ccccc3)C[C@H]2C(=O)Nc2cccc(CC#N)c2)c(C)n1 [Example 39, (1R,2S)-N-[3-(cyanomethyl)phenyl]-2-{[(2,4-dimethylpyrimidin-5-yl)oxy]methyl}-2-phenylcyclopropanecarboxamide]
IC50 (OX1; [1]): 354 nM
IC50 (OX2; read-out: OX2 (IC50)): 6 nM

CCc1nc(C)ncc1OC[C@@]1(c2ccccc2)C[C@H]1C(=O)Nc1cncc(OC)c1 [Example 317]
IC50 (OX1; [1]): 451 nM
IC50 (OX2; read-out: OX2 (IC50)): 20 nM

Cc1ncc(OC[C@@]2(c3ccccc3)C[C@H]2C(=O)Nc2cnc(Cl)c(C(F)(F)F)c2)c(C)n1 [Example 60]
IC50 (OX1; [1]): > 2000 nM
IC50 (OX2; read-out: OX2 (IC50)): 105 nM

Cc1ncc(OC[C@@]2(c3cccc(F)c3)C[C@H]2C(=O)Nc2ncc(F)cc2O)c(C)n1 [Example 319, (1R,2S)-2-{{[(2,4-dimethylpyrimidin-5-yl)oxy]methyl}}-N-(5-fluoro-3-hydroxypyridin-2-yl)-2-(3-fluorophenyl)cyclopropanecarboxamide]
IC50 (OX1): > 200 nM
IC50 (OX2; OX2 (IC50) nM): 128 nM

COc1cc(NC(=O)[C@@H]2C[C@@]2(COc2cnc(C)nc2C)c2ccccc2)cnc1F [Example 327, (1R,2S)-2-{[(2,4-dimethylpyrimidin-5-yl)oxy]methyl}-N-(6-fluoro-5-methoxypyridin-3-yl)-2-phenylcyclopropanecarboxamide]
IC50 (OX1; [1]): 192 nM
IC50 (OX2; read-out: OX2 (IC50)): 3 nM

Cc1ncc(OCC2(c3ccc(F)cc3)CC2C(=O)Nc2cccnc2)c(C)n1 (centres unmarked) [Example 103]
IC50 (OX1; [1]): 2940 nM
IC50 (OX2; read-out: OX2 (IC50)): 96 nM

Cc1ncc(OC[C@@]2(c3cccc(F)c3)C[C@H]2C(=O)Nc2ccnc(F)c2)c(C)n1 [Example 97]
IC50 (OX1): 105 nM
IC50 (OX2; OX2 (IC50) nM): 21 nM

Cc1ncc(OCC2(c3cccc(F)c3F)CC2C(=O)Nc2ccc(F)cn2)c(C)n1 (centres unmarked) [Example 162, 2-(2,3-difluorophenyl)-2-{[(2,4-dimethylpyrimidin-5-yl)oxy]methyl}-N-(5-fluoropyridin-2-yl)cyclopropanecarboxamide]
IC50 (OX1): 65 nM
IC50 (OX2; OX2 (IC50) nM): 13 nM

COCc1nc(C)ncc1OC[C@@]1(c2cccc(F)c2)C[C@H]1C(=O)Nc1ccc(C(F)(F)F)cn1 [Example 201, (1R,2S)-2-(3-fluorophenyl)-2-{[(4-methoxymethyl-2-methylpyrimidin-5-yl)oxy]methyl}-N-[5-(trifluoromethyl)pyridin-2-yl]cyclopropanecarboxamide]
IC50 (OX1): 5 nM
IC50 (OX2; OX2 (IC50) nM): 4 nM

CCc1nc(C)ncc1OC[C@@]1(c2cccc(F)c2)C[C@H]1C(=O)Nc1cc(C)c(F)cn1 [Example 244, (1R,2S)-2-{[(4-ethyl-2-methylpyrimidin-5-yl)oxy]methyl}-N-(5-fluoro-4-methylpyridin-2-yl)-2-(3-fluorophenyl)cyclopropanecarboxamide]
IC50 (OX1; [1]): 3 nM
IC50 (OX2; read-out: OX2 (IC50)): 5.3 nM
